The target in one assay is KRAS G12V (Homo sapiens, UniProt P01116, G12V). Put plainly: GDP-GTP exchange assay (bodipy-GDP/GppNHp, SOS1), KRAS G12V. Format: biochemical. Conditions: KRAS G12V mutant; value for the most potent isomer quoted for certain compounds; read-out: G12V (KRAS G12V exchange assay IC50). The procedure: (§1) The inhibitor potency of the exemplified compounds was determined in a fluorescence based guanine nucleotide exchange assay, which measures the exchange of bodipy-GDP (fluorescently labeled GOP) for GppNHp (Non-hydrolyzable GTP analog) to generate the active state of KRAS in the presence of SOS1 (guanine nucleotide exchange factor). Inhibitors were serially diluted in DMSO and a volume of 0.1 μL was transferred to the wells of a black low volume 384-well plate. 5 μL/well volume of bodipy-loaded KRAS G12D diluted to 2.5 nM in assay buffer (25 mM Hepes pH 7.5, 50 mM NaCl, 10 mM MgCl2 and 0.01% Brij-35) was added to the plate and pre-incubated with inhibitor for 4 h at r.t. Appropriate controls (enzyme with no inhibitor or with a G12D inhibitor) were included on the plate. The exchange was initiated by the addition of a 5 μL/well volume containing 1 mM GppNHp and 300 nM SOS1 in assay buffer. The 10 μL/well reaction concentration of the bodipy-loaded KRAS G12D, GppNHp, and SOS1 were 2.5 nM, 500 μM, and 150 nM, respectively. The reaction plates were incubated at r.t. for 2 h, a time estimated for complete GDP-GTP exchange in the absence of inhibitor. For the KRAS G12V mutant, similar guanine nucleotide exchange assays were used with 2.5 nM as final concentration for the bodipy loaded KRAS proteins and 3 h incubation after adding GppNHp-SOS1 mixture. A cyclic peptide described to selectively bind G12D mutant (Sakamoto et al., BBRC 484.3 (2017), 605-611) or internal compounds with confirmed binding were used as positive controls in the assay plates. Fluorescence intensities were measured on a PheraStar plate reader instrument (BMG Labtech) with excitation at 485 nm and emission at 520 nm.
(§2) Either GraphPad prism or Genedata Screener SmartFit was used to analyze the data. The IC50 values were derived by fitting the data to a four parameter logistic equation producing a sigmoidal dose-response curve with a variable Hill coefficient.
(§3) The symbol “†” indicates IC50≤100 nM, “††” indicates IC50>100 nM but ≤1 μM; and “†††” indicates IC50 is >1 μM but ≤5 μM, “††††” indicates IC50 is >5 μM but ≤10 μM. “NA” indicates IC50 not available.

The target of a further assay is KRAS G12D (Homo sapiens, UniProt P01116, G12D). In words: GDP-GTP exchange assay (bodipy-GDP/GppNHp, SOS1), KRAS G12D. The conditions noted are these: bodipy-loaded KRAS G12D 2.5 nM, 4 h pre-incubation; value for the most potent isomer quoted for certain compounds; read-out: G12D (KRAS G12D exchange assay IC50). The format is biochemical. On the procedure:
as §1, §2, §3

KRAS G12V, sequence (P01116 1-188 isoform P01116-2 G12V): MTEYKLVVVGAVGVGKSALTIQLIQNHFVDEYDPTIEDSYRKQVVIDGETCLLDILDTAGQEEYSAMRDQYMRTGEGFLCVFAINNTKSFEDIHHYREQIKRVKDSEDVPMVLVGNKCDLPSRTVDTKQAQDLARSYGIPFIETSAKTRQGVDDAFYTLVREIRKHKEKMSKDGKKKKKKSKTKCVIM
KRAS G12D, sequence (P01116 1-188 isoform P01116-2 G12D): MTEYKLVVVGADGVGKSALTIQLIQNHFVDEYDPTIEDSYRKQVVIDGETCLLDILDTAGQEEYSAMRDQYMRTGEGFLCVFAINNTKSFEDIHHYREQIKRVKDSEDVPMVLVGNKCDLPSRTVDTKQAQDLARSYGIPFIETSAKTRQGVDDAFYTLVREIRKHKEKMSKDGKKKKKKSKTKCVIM

By IC50 is commonly meant the point on the concentration scale where inhibition reaches its midpoint. `COc1ccccc1O[C@H]1C[C@H](c2cc3c(C)nc4c(F)c(-c5cccc(Cl)c5Cl)c(CCC#N)cc4c3n2[C@H]2[C@H]3CN[C@@H]2C3)N(C(=O)C2CC2)C1` [Example 250]: the half-maximal inhibitory concentration (IC50) on KRAS G12V and on KRAS G12D was at most 100 nM each time.

With `Cc1nc2c(F)c(-c3cccc(Cl)c3Cl)c(CCC#N)cc2c2c1cc([C@H]1C[C@H](n3cc([C@]45C[C@H](CN4)C5)nn3)CN1C(=O)C1CC1)n2[C@H]1[C@H]2CN[C@@H]1C2` [Example 274], the IC50 at KRAS G12V and on KRAS G12D was at most 100 nM throughout.

For `Cc1nc2c(F)c(-c3cccc(Cl)c3Cl)c(CCC#N)cc2c2c1cc([C@H]1C[C@H](Oc3cnn(CC(F)F)c3)CN1C(=O)C1CC1)n2[C@H]1[C@H]2CN[C@@H]1C2` [Example 377], the IC50 at KRAS G12V and at KRAS G12D was at most 100 nM in each case.

Turning to `Cc1csnc1C(C)O[C@H]1C[C@H](c2cc3c(C(C)O)nc4c(F)c(-c5cccc(Cl)c5Cl)c(CCC#N)cc4c3n2[C@H]2[C@H]3CN[C@@H]2C3)N(C(=O)C2CC2)C1` (stereo partly drawn) [Example 334], the IC50 on KRAS G12V and at KRAS G12D was at most 100 nM each time.

On to `Cc1nc2c(F)c(-c3cccc(Cl)c3Cl)c(CCC#N)cc2c2c1cc([C@H]1C[C@H](n3ncc(C#N)n3)CN1C(=O)C1CC1)n2[C@H]1[C@H]2CN[C@@H]1C2` [Example 346], for which the IC50 on KRAS G12V and at KRAS G12D was at most 100 nM each time.

`COc1ccnc(O[C@H]2C[C@H](c3cc4c(C)nc5c(F)c(-c6cccc(Cl)c6Cl)c(CCC#N)cc5c4n3[C@H]3[C@H]4CN[C@@H]3C4)N(C(=O)C3CC3)C2)n1` [Example 247]: the IC50 on KRAS G12V and at KRAS G12D was at most 100 nM in each case.

As to `Cc1ccc(O[C@H]2C[C@H](c3cc4c(C)nc5c(F)c(-c6cccc(Cl)c6Cl)c(CCC#N)cc5c4n3[C@H]3[C@H]4CN[C@@H]3C4)N(C(=O)C3CC3)C2)cc1` [Example 118], the IC50 at KRAS G12V and on KRAS G12D was at most 100 nM in each case.

Take `Cc1cccc(C(F)(F)F)c1CO[C@H]1C[C@H](c2cc3c(C)nc4c(F)c(-c5cccc(Cl)c5Cl)c(CCC#N)cc4c3n2[C@H]2[C@H]3CN[C@@H]2C3)N(C(=O)C2CC2)C1` [Example 124]: the IC50 at KRAS G12V is at most 100 nM; at KRAS G12D it was 100 to 1000 nM.

Regarding `Cc1nc2c(F)c(-c3cccc(Cl)c3Cl)c(CCC#N)cc2c2c1cc([C@H]1C[C@H](Oc3ccn(C(F)F)n3)CN1C(=O)C1CC1)n2[C@H]1[C@H]2CN[C@@H]1C2` [Example 340], the IC50 at KRAS G12V and on KRAS G12D was at most 100 nM in each case.

`Cc1nc2c(F)c(-c3cccc(Cl)c3Cl)c(CCC#N)cc2c2c1cc([C@H]1C[C@H](Oc3ccc(F)cc3)CN1C(=O)C1CC1)n2[C@H]1[C@H]2CN[C@@H]1C2` [Example 120]: the IC50 on KRAS G12V and at KRAS G12D was at most 100 nM throughout.

Take `COc1nccc(C#N)c1O[C@H]1C[C@H](c2cc3c(C)nc4c(F)c(-c5cccc(Cl)c5Cl)c(CCC#N)cc4c3n2[C@H]2[C@H]3CN[C@@H]2C3)N(C(=O)C2CC2)C1` [Example 298]: the IC50 at KRAS G12V and on KRAS G12D was at most 100 nM throughout.

Consider `Cc1nc2c(F)c(-c3cccc(Cl)c3Cl)c(CCC#N)cc2c2c1cc([C@H]1C[C@H](n3ccc(C(F)F)n3)CN1C(=O)C1CC1)n2[C@H]1[C@H]2CN[C@@H]1C2` [Example 318], for which the IC50 on KRAS G12V and at KRAS G12D was at most 100 nM each time.

Consider `Cc1nc2c(F)c(-c3cccc(Cl)c3Cl)c(CCC#N)cc2c2c1cc([C@H]1C[C@H](n3nnc(-c4ccncc4)n3)CN1C(=O)C1CC1)n2[C@H]1[C@H]2CN[C@@H]1C2` (atropisomer, axis not shown) [Example 437], for which the IC50 on KRAS G12V and at KRAS G12D was at most 100 nM each time.

Turning to `Cc1nc2c(F)c(-c3cccc(Cl)c3Cl)c(CCC#N)cc2c2c1cc([C@H]1C[C@H](Oc3cnn(C(F)(F)F)c3)CN1C(=O)C1CC1)n2[C@H]1[C@H]2CN[C@@H]1C2` [Example 374], the IC50 at KRAS G12V and at KRAS G12D was at most 100 nM each time.

With `COc1cccnc1O[C@H]1C[C@H](c2cc3c(C)nc4c(F)c(-c5cccc(Cl)c5Cl)c(CCC#N)cc4c3n2[C@H]2[C@H]3CN[C@@H]2C3)N(C(=O)C2CC2)C1` [Example 307], the half-maximal inhibitory concentration (IC50) on KRAS G12V and on KRAS G12D was 100 to 1000 nM throughout.

In the case of `Cc1nc2c(F)c(-c3cccc(Cl)c3Cl)c(CCC#N)cc2c2c1cc([C@H]1C[C@H](OCc3nc4ccccc4s3)CN1C(=O)C1CC1)n2[C@H]1[C@H]2CN[C@@H]1C2` [Example 360], the IC50 at KRAS G12V and at KRAS G12D was at most 100 nM each time.

Regarding `COC(=O)[C@H]1C[C@H]1c1cn([C@H]2C[C@H](c3cc4c(C)nc5c(F)c(-c6cccc(Cl)c6Cl)c(CCC#N)cc5c4n3[C@H]3[C@H]4CN[C@@H]3C4)N(C(=O)C3CC3)C2)nn1` [Example 390], the IC50 at KRAS G12V and on KRAS G12D was at most 100 nM each time.

With `Cc1nc2c(F)c(-c3cccc(Cl)c3Cl)c(CCC#N)cc2c2c1cc([C@H]1C[C@H](OCc3ccncc3)CN1C(=O)C1CC1)n2[C@H]1[C@H]2CN[C@@H]1C2` [Example 96], the IC50 at KRAS G12V and at KRAS G12D was at most 100 nM throughout.

Take `Cc1nc2c(F)c(-c3cccc(Cl)c3Cl)c(CCC#N)cc2c2c1cc([C@H]1C[C@H](n3cc(C4CCCC4)nn3)CN1C(=O)C1CC1)n2[C@H]1[C@H]2CN[C@@H]1C2` [Example 183]: the IC50 on KRAS G12V and at KRAS G12D was at most 100 nM in each case.

For the compound `Cc1nc2c(F)c(-c3cccc(Cl)c3Cl)c(CCC#N)cc2c2c1cc([C@H]1C[C@H](n3cc(C45CC(N)(C4)C5)nn3)CN1C(=O)C1CC1)n2[C@H]1[C@H]2CN[C@@H]1C2` [Example 275], the 50% inhibitory concentration (IC50) at KRAS G12V and at KRAS G12D was at most 100 nM in each case.

In the case of `Cc1nc2c(F)c(-c3cccc(Cl)c3Cl)c(CCC#N)cc2c2c1cc([C@H]1C[C@H](OCc3ncco3)CN1C(=O)C1CC1)n2[C@H]1[C@H]2CN[C@@H]1C2` [Example 104], the IC50 on KRAS G12V is 100 to 1000 nM; at KRAS G12D it was at most 100 nM.

As for `Cc1nc2c(F)c(-c3cccc(Cl)c3Cl)c(CCC#N)cc2c2c1cc([C@H]1C[C@H](Oc3cnccc3C#N)CN1C(=O)C1CC1)n2[C@H]1[C@H]2CN[C@@H]1C2` [Example 302], the IC50 at KRAS G12V and at KRAS G12D was at most 100 nM each time.

As for `Cc1nc2c(F)c(-c3cccc(Cl)c3Cl)c(CCC#N)cc2c2c1cc([C@H]1C[C@H](n3cc(CN4CCOCC4=O)nn3)CN1C(=O)C1CC1)n2[C@H]1[C@H]2CN[C@@H]1C2` [Example 323], the IC50 at KRAS G12V and at KRAS G12D was at most 100 nM throughout.

Regarding `Cc1nc2c(F)c(-c3cccc(Cl)c3Cl)c(CCC#N)cc2c2c1cc([C@H]1C[C@H](n3cnc(-c4ccccc4)n3)CN1C(=O)C1CC1)n2[C@H]1[C@H]2CN[C@@H]1C2` [Example 349], the IC50 at KRAS G12V and on KRAS G12D was at most 100 nM each time.

`Cc1nc2c(F)c(-c3cccc(Cl)c3Cl)c(CCC#N)cc2c2c1cc([C@H]1C[C@H](n3cc(Cn4ccccc4=O)nn3)CN1C(=O)C1CC1)n2[C@H]1[C@H]2CN[C@@H]1C2` [Example 324]: the IC50 on KRAS G12V and at KRAS G12D was at most 100 nM in each case.

Regarding `Cc1nc2c(F)c(-c3cccc(Cl)c3Cl)c(CCC#N)cc2c2c1cc([C@H]1C[C@H](OCc3cnco3)CN1C(=O)C1CC1)n2[C@H]1[C@H]2CN[C@@H]1C2` [Example 258], the 50% inhibitory concentration (IC50) on KRAS G12V and on KRAS G12D was at most 100 nM each time.

Regarding `N#CCCc1cc2c(nc(C3CCNC3)c3cc([C@H]4C[C@H](OCc5c(F)cccc5F)CN4C(=O)C4CC4)n([C@H]4[C@H]5CN[C@@H]4C5)c32)c(F)c1-c1cccc(Cl)c1Cl` (stereo partly drawn) [Example 239], the IC50 on KRAS G12V and on KRAS G12D was at most 100 nM throughout.

Source of the values: patent US20240390340A1 (INCYTE CORPORATION, priority 2023, published 2024).
